Tested on: LG0703-F498-PDC complex spheroid growth
Experiment: Anticancer human tumor LG0703-F498-PDC patient-derived lung adenocarcinoma cell line growth inhibition [AhR]
Details: for IC50: curve of first compound; for viability, T/C: stronger effect = lower value
Excerpt: Multicellular complex tumor spheroid response to aryl hydrocarbon receptor antagonists in combination with a variety of drugs and investigational agents in selected tumor cell lines
The current study was undertaken to assess response to aryl hydrocarbon receptor antagonists in combination with standard-of-care drugs and investigational agents in solid tumor complex spheroid models. Complex spheroids include a stromal component modeled by human endothelial cells (HUVEC) and fibroblasts modeled by human mesenchymal stem cells (MSCs). The concentration ranges selected for each drug and investigational agent were based upon clinically achievable concentrations if the clinical Cmax of the agent was known.
Compounds. The drugs and investigational agents: BAY 2416964 (NSC825713), GNF351 (NSC835774), CH-223191 (NSC835775), CPI-455 (NSC825282), aza-TdCyd (NSC777586), decitabine (NSC127716), belinostat (NSC758774), entinostat (NSC756642), pevonedistat (NSC761192), tazemetostat (NSC777109), talazoparib (NSC765396), olaparib (NSC753686), selinexor (NSC780203), nedisertib (M3814, NSC802822), bortezomib (NSC756655), venetoclax (NSC766270), doxorubicin (NSC123127), elimusertib (BAY189344, NSC800525), ceralasertib (AZD6738, NSC777638), TAK-243 (NSC785004), alisertib (NSC759677), etoposide (NSC141540), topotecan (NSC609699), eribulin (NSC707389), gemcitabine (NSC613327), carboplatin (NSC241240), cisplatin (NSC119875), and SN-38 (NSC673596) were obtained from the National Cancer Institute (NCI) Developmental Therapeutics Program Chemical Repository (32). The FDA-approved anticancer drug set is available from the Developmental Therapeutics Program at https://dtp.cancer.gov/organization/dscb/obtaining/available plates.htm. […] The stock solutions were prepared in dimethyl sulfoxide (DMSO, Sigma-Aldrich, St. Louis, MO, cat. D2650), except for the platinum compounds which were prepared in saline (Quality Biological, Gaithersburg, MD, cat. 114-055-101), at 800-fold the tested concentration and stored at -70 degrees C prior to their use. All drugs and investigational agents were tested over a range starting from a high concentration at or near the clinical Cmax and decreasing in half-log increments. If the clinical Cmax for an agent had not been determined, the highest concentration tested was 10 microM (Table 1).
Cell Culture. All cells were maintained in an incubator at 37 degrees C and 5% CO2 with 95% humidity. The PDC lines were cultured according to standard operating procedures established by the NCI PDMR (https://pdmr.cancer.gov). Briefly, all PDCs were thawed and cultured in Matrigel-coated flasks prepared with a working solution of 1X Ham's F-12 nutrient mix, without supplementation (Invitrogen, Waltham, MA, cat. 11765054), 100 U/mL penicillin-streptomycin (Invitrogen, cat. 15140122), and 2.5% Matrigel (Corning Inc., Corning, NY, cat. 354248) for the first three passages. All PDCs were cultured in complete DMEM/F-12 media containing advanced DMEM/F-12 (Invitrogen, cat. 12634028), 4.9% defined fetal bovine serum, heat inactivated (HyClone Laboratories Inc., Logan, UT, cat. SH30070.03HI), 389 ng/mL hydrocortisone (Sigma-Aldrich, cat. H4001), 9.7 ng/mL human EGF recombinant protein (Invitrogen, cat. PHG0313), 23.4 microg/mL adenine (Sigma-Aldrich, cat. A2786), 97.3 U/mL penicillin-streptomycin (Invitrogen, cat. 15140122), 1.9 mM L-glutamine (Invitrogen, cat. 25030081), and 9.7 microM Y-27632 dihydrochloride (Tocris Bioscience, Bristol, United Kingdom, cat. 1254). The PDCs were cultured in complete DMEM/F12 media without 10 microM Y-27632 dihydrochloride for at least two passages prior to the screen. The established cell lines NCI-H1341 and […] were cultured in DMEM/F-12, HEPES (Invitrogen, cat. 11330032), 5% defined fetal bovine serum (HyClone Laboratories Inc., cat. SH30070.03), ITS premix universal culture supplement [insulin (5 microg/mL), transferrin (5 microg/mL), and selenious acid (5 ng/mL)] […]
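Also: luminescence taken as a proxy for viable cell amount.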
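For viability, T/C in this document: percent of DMSO vehicle control where 100% means growth equal to vehicle.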

- IC50 (second compound 0.1 µM): > 3 µM
- IC50 (second compound 0.316 µM): > 3 µM
- IC50 (second compound 1 µM): > 3 µM
- IC50 (second compound 3.16 µM): > 3 µM
- IC50 (second compound 10 µM): > 3 µM
SMILES: CCN(c1cc(-c2ccc(CN3CCOCC3)cc2)cc(C(=O)NCc2c(C)cc(C)[nH]c2=O)c1C)C1CCOCC1 + CC(CO)NC(=O)c1cc(-c2ccc(Cl)cc2)nn(-c2cnn(C)c2)c1=O
- viability, T/C (second compound 0.1 µM, first compound 0.00949 µM): 98.2%
- viability, T/C (second compound 0.1 µM, first compound 0.03 µM): 100%
- viability, T/C (second compound 0.1 µM, first compound 0.0949 µM): 93.9%
- viability, T/C (second compound 0.1 µM, first compound 0.3 µM): 96.1%
- viability, T/C (second compound 0.1 µM, first compound 0.949 µM): 95.7%
- viability, T/C (second compound 0.1 µM, first compound 3 µM): 94.6%
- viability, T/C (second compound 0.316 µM, first compound 0.00949 µM): 105%
- viability, T/C (second compound 0.316 µM, first compound 0.03 µM): 112%
- viability, T/C (second compound 0.316 µM, first compound 0.0949 µM): 101%
- viability, T/C (second compound 0.316 µM, first compound 0.3 µM): 92.9%
- viability, T/C (second compound 0.316 µM, first compound 0.949 µM): 114%
- viability, T/C (second compound 0.316 µM, first compound 3 µM): 105%
- viability, T/C (second compound 1 µM, first compound 0.00949 µM): 91.1%
- viability, T/C (second compound 1 µM, first compound 0.03 µM): 95.7%
- viability, T/C (second compound 1 µM, first compound 0.0949 µM): 99%
- viability, T/C (second compound 1 µM, first compound 0.3 µM): 90%
- viability, T/C (second compound 1 µM, first compound 0.949 µM): 92.9%
- viability, T/C (second compound 1 µM, first compound 3 µM): 103%
- viability, T/C (second compound 3.16 µM, first compound 0.00949 µM): 85.1%
- viability, T/C (second compound 3.16 µM, first compound 0.03 µM): 95.3%
- viability, T/C (second compound 3.16 µM, first compound 0.0949 µM): 96.7%
- viability, T/C (second compound 3.16 µM, first compound 0.3 µM): 81.2%
- viability, T/C (second compound 3.16 µM, first compound 0.949 µM): 84.8%
- viability, T/C (second compound 3.16 µM, first compound 3 µM): 102%
- viability, T/C (second compound 10 µM, first compound 0.00949 µM): 86%
- viability, T/C (second compound 10 µM, first compound 0.03 µM): 97.1%
- viability, T/C (second compound 10 µM, first compound 0.0949 µM): 94.2%
- viability, T/C (second compound 10 µM, first compound 0.3 µM): 93.8%
- viability, T/C (second compound 10 µM, first compound 0.949 µM): 78.3%
- viability, T/C (second compound 10 µM, first compound 3 µM): 96.3%

Reference: PubChem BioAssay AID1919013 (Molecular Pharmacology Branch, DTP, NCI, 2023)
